From ChEMBL document CHEMBL4680356, “Discovery of a novel 53BP1 inhibitor through AlphaScreen-based high-throughput screening” (Bioorg Med Chem, 2021)

Legend:
TP53-binding protein 1 [1] = molecular target: T1, TP53-binding protein 1 (Homo sapiens, UniProt Q12888); assay: Inhibition of recombinant human N-terminal His6-tagged 53BP1 TTD (1484 to1603 residues) expressed in Escherichia coli BL21 (DE3) cells using Biotin-H4K2Ome2 as substrate preincubated for 30 mins followed by substrate addition and measured after 30 mins by AlphaScreen assay
TP53-binding protein 1 [2] = molecular target: T1, TP53-binding protein 1; assay: Binding affinity to recombinant human N-terminal His6-tagged lysine dye- labeled 53BP1 TTD (1484 to1603 residues) expressed in Escherichia coli BL21 (DE3) cells incubated for 10 mins by MST assay
TP53-binding protein 1 [3] = molecular target: T1, TP53-binding protein 1; assay: Binding affinity to recombinant human N-terminal His6-tagged 53BP1 TTD (1484 to1603 residues) expressed in Escherichia coli BL21 (DE3) cells by SPR analysis

T1 sequence (Q12888 whole entry, the tested form may be a part): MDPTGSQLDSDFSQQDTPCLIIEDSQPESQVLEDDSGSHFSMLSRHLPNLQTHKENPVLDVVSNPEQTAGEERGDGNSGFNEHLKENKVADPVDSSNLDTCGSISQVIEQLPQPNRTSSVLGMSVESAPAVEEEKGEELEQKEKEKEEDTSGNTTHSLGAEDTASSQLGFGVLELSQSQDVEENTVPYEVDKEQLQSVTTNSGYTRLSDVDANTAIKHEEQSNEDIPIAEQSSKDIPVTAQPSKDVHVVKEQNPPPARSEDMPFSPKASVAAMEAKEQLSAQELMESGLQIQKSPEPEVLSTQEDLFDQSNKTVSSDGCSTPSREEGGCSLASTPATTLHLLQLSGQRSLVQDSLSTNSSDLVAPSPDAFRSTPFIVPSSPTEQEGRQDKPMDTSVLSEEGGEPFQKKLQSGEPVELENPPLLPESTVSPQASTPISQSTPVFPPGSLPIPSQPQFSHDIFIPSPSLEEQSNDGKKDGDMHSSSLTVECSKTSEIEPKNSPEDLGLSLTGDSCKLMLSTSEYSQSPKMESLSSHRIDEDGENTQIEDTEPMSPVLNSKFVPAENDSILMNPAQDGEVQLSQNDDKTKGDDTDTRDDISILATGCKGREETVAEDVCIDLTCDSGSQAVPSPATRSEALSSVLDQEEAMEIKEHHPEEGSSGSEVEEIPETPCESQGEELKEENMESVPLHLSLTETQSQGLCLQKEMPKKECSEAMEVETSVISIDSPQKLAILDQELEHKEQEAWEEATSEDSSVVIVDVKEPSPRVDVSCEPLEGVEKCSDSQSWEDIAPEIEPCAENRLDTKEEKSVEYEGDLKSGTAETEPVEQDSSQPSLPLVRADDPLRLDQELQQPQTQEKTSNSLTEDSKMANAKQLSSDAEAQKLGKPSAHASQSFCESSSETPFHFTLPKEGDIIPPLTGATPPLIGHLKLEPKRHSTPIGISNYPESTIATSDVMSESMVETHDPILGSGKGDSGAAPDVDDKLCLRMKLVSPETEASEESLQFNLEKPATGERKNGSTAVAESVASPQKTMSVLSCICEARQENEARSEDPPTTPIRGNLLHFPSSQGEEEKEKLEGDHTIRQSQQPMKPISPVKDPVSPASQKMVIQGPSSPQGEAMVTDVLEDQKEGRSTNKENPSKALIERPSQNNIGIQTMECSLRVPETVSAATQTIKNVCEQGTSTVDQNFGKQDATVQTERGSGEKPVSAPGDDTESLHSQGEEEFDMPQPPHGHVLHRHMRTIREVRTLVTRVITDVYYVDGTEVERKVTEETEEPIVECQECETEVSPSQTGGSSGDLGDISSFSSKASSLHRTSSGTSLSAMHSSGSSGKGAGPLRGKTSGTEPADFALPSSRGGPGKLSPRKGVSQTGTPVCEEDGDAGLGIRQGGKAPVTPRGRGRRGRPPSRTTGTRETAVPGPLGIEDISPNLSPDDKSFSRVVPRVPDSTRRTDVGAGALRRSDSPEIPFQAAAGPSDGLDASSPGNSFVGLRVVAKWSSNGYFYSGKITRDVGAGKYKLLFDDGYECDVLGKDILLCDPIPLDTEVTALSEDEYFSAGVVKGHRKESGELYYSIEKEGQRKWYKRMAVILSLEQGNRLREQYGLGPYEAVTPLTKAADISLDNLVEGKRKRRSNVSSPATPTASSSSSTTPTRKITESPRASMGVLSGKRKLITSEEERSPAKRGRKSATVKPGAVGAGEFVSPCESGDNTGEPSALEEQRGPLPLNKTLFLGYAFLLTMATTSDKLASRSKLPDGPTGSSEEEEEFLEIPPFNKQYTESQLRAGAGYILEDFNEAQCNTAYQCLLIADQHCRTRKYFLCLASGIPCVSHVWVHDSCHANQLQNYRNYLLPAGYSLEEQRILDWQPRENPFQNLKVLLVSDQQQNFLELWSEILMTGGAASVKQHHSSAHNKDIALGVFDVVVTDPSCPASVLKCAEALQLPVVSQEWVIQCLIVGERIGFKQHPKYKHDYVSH

Row | IC50 (TP53-binding protein 1 [1]) [µM] | Kd (TP53-binding protein 1 [2]) [µM] | Kd (TP53-binding protein 1 [3]) [µM] | Compound
1 | 17.8 |  |  | CCN(CC)c1cc(C)c2cc(N(C)C(=O)/C=C/c3ccco3)ccc2n1
2 | 31.3 |  |  | CCN(CC)c1cc(C)c2cc(NC(=O)/C=C/c3ccccn3)ccc2n1
3 | 22.3 |  |  | Cc1cc2cc(NC(=O)/C=C/c3ccco3)ccc2[nH]1
4 | > 50 |  |  | CCN(CC)c1cc(C)c2cc(NC(=O)/C=C/c3ccc4ccoc4c3)ccc2n1
5 | > 50 |  |  | O=C(/C=C/c1ccco1)Nc1cccc2ncccc12
6 | 4.2 |  |  | Cc1cc(N(C)C)nc2ccc(NC(=O)/C=C/c3ccco3)cc12
7 | 1.69 | 2.69 | 2.7 | CCN(CC)c1cc(C)c2cc(NC(=O)/C=C/c3ccco3)ccc2n1
8 | > 50 |  |  | CN(C)c1ccc2cc(NC(=O)/C=C/c3cccc4cccnc34)ccc2n1
9 | 15.1 |  |  | Cc1cc(N2CCCCC2)nc2ccc(NC(=O)/C=C/c3ccco3)cc12
